# From US9635859B2, “Pesticidal compositions and processes related thereto” (Dow AgroSciences LLC, priority 2012, dated 2017)
# Tested on: Beet Armyworm (Spodoptera exigua)
# Assay: Bioassays on BAW, 128-well diet tray assay
# Type: in vivo
# Settings: percent mortality, second instar larvae, 50 μg/cm^2 on artificial diet, five to seven days, 25° C.; Table 3
# Protocol: Certain molecules disclosed in this document were tested against BAW and CEW and CL using procedures described in the following examples. In the reporting of the results, the “BAW & CEW & CL Rating Table” was used (See Table Section).
# Bioassays on BAW (Spodoptera exigua)
# Bioassays on BAW were conducted using a 128-well diet tray assay. one to five second instar BAW larvae were placed in each well (3 mL) of the diet tray that had been previously filled with 1 mL of artificial diet to which 50 μg/cm^2 of the test compound (dissolved in 50 μL of 90:10 acetone-water mixture) had been applied (to each of eight wells) and then allowed to dry. Trays were covered with a clear self-adhesive cover, and held at 25° C., 14:10 light-dark for five to seven days. Percent mortality was recorded for the larvae in each well; activity in the eight wells was then averaged. The results are indicated in the table entitled “Table 3: Assay Results” (See Table Section).
row,SMILES,BAW Rating
1,"Cc1cc(/C=C/C(c2cc(Cl)cc(Cl)c2)C(F)(F)F)ccc1C(=O)NCc1nnc(C2CC2)o1 (stereo not drawn) [AC89, (E)-N-((5-Cyclopropyl-1,3,4-oxadiazol-2-yl)methyl)-4-(3-(3,5-dichlorophenyl)-4,4,4-trifluorobut-1-en-1-yl)-2-methylbenzamide]",A (50-100)
2,"FC(F)(F)CNC(=S)CNC(=S)c1ccc(/C=C/C(c2cc(Cl)c(Cl)c(Cl)c2)C(F)(F)F)cc1Br (stereo not drawn) [AC90, (E)-2-Bromo-N-(2-thioxo-2-((2,2,2-trifluoroethyl)amino)ethyl)-4-(4,4,4-trifluoro-3-(3,4,5-trichlorophenyl)but-1-en-1-yl)benzothioamide]",A (50-100)
3,"O=C(CNC(=S)c1ccc(/C=C/C(c2cc(Cl)c(Cl)c(Cl)c2)C(F)(F)F)cc1Br)NCC(F)(F)F (stereo not drawn) [AC91, (E)-2-(2-Bromo-4-(4,4,4-trifluoro-3-(3,4,5-trichlorophenyl)but-1-en-1-yl)phenylthioamido)-N-(2,2,2-trifluoroethyl)acetamide]",A (50-100)
4,"O=C(NCC(=S)NCC(F)(F)F)c1ccc(/C=C/C(c2cc(Cl)c(Cl)c(Cl)c2)C(F)(F)F)cc1Br (stereo not drawn) [AC92, (E)-2-Bromo-N-(2-thioxo-2-((2,2,2-trifluoroethyl)amino)ethyl)-4-(4,4,4-trifluoro-3-(3,4,5-trichlorophenyl)but-1-en-1-yl)benzamide]",A (50-100)
5,Cc1cc(/C=C\C(c2cc(Cl)cc(Cl)c2)C(F)(F)F)ccc1C(=O)NCC(=O)NC1CC1 (stereo not drawn) [AC93],A (50-100)
6,"O=C(CNC(=O)c1ccc(/C=C\C(c2cc(Cl)c(Cl)c(Cl)c2)C(F)(F)F)cc1Br)NCC(F)(F)F (stereo not drawn) [AC95, (Z)-2-Bromo-N-(2-oxo-2-((2,2,2-trifluoroethyl)amino)ethyl)-4-(4,4,4-trifluoro-3-(3,4,5-trichlorophenyl)but-1-en-1-yl)benzamide]",A (50-100)
7,O=C(CNC(=O)c1ccc(/C=C/C(c2cc(Cl)c(F)c(Cl)c2)C(F)(F)F)cc1[N+](=O)[O-])NCC(F)(F)F (stereo not drawn) [AC98],A (50-100)
8,O=C(CNC(=O)c1ccc(/C=C/C(c2ccc(F)c(Cl)c2)C(F)(F)F)cc1Br)NCC(F)(F)F (stereo not drawn) [AC99],A (50-100)
9,"CC(=O)N1CCC(NC(=O)c2ccc(/C=C/C(c3cc(Cl)c(Cl)c(Cl)c3)C(F)(F)F)cc2Br)CC1 (stereo not drawn) [AC103, (E)-N-(1-Acetylpiperidin-4-yl)-2-bromo-4-(4,4,4-trifluoro-3-(3,4,5-trichlorophenyl)but-1-en-1-yl)benzamide]",A (50-100)
10,"O=C(NC1CCN(C(=O)CC(F)(F)F)CC1)c1ccc(/C=C/C(c2cc(Cl)c(Cl)c(Cl)c2)C(F)(F)F)cc1Br (stereo not drawn) [AC104, (E)-2-Bromo-4-(4,4,4-trifluoro-3-(3,4,5-trichlorophenyl)but-1-en-1-yl)-N-(1-(3,3,3-trifluoropropanoyl)piperidin-4-yl)benzamide]",A (50-100)
11,"CN1CCC(NC(=O)c2ccc(/C=C/C(c3cc(Cl)c(Cl)c(Cl)c3)C(F)(F)F)cc2Br)CC1 (stereo not drawn) [AC106, (E)-2-Bromo-N-(1-methylpiperidin-4-yl)-4-(4,4,4-trifluoro-3-(3,4,5-trichlorophenyl)but-1-en-1-yl)benzamide]",A (50-100)
12,N#CCN1CCC(NC(=O)c2ccc(/C=C/C(c3cc(Cl)c(Cl)c(Cl)c3)C(F)(F)F)cc2Br)CC1 (stereo not drawn) [AC107],B (More than 0-Less than 50)
13,"O=C(NC1CCN(C2COC2)CC1)c1ccc(/C=C/C(c2cc(Cl)c(Cl)c(Cl)c2)C(F)(F)F)cc1Br (stereo not drawn) [AC108, (E)-2-Bromo-N-(1-(oxetan-3-yl)piperidin-4-yl)-4-(4,4,4-trifluoro-3-(3,4,5-trichlorophenyl)but-1-en-1-yl)benzamide]",B (More than 0-Less than 50)
14,CONC(=O)CNC(=O)c1ccc(/C=C/C(c2cc(Cl)c(Cl)c(Cl)c2)C(F)(F)F)cc1Br (stereo not drawn) [AC110],A (50-100)
15,C=CCNC(=O)CNC(=O)c1ccc(/C=C/C(c2cc(Cl)c(Cl)c(Cl)c2)C(F)(F)F)cc1Br (stereo not drawn) [AC111],A (50-100)
16,O=C(NCCc1ccc(Cl)nc1)c1ccc(/C=C/C(c2cc(Cl)c(Cl)c(Cl)c2)C(F)(F)F)cc1Br (stereo not drawn) [AC113],B (More than 0-Less than 50)
17,"O=C(NC1CCNCC1)c1ccc(/C=C/C(c2cc(Cl)c(Cl)c(Cl)c2)C(F)(F)F)cc1Br (stereo not drawn) [AC114, (E)-2-Bromo-N-(piperidin-4-yl)-4-(4,4,4-trifluoro-3-(3,4,5-trichlorophenyl)but-1-en-1-yl)benzamide]",A (50-100)
18,"Cc1cc(/C=C/C(c2cc(Cl)cc(Cl)c2)C(F)(F)F)ccc1C(=S)NCc1ccc(Cl)nc1 (stereo not drawn) [AC115, (E)-N-((6-Chloropyridin-3-yl)methyl)-4-(3-(3,5-dichlorophenyl)-4,4,4-trifluorobut-1-en-1-yl)-2-methylbenzothioamide]",A (50-100)
19,Cc1cc(/C=C/C(c2cc(Cl)cc(Cl)c2)C(F)(F)F)ccc1C(=O)N(C)Cc1ccc(Cl)nc1 (stereo not drawn) [AC117],A (50-100)
20,Cc1cc(/C=C/C(c2cc(Cl)cc(Cl)c2)C(F)(F)F)ccc1C(=O)NCC1CCCO1 (stereo not drawn) [AC118],A (50-100)
21,O=C(CC(F)(F)F)NC1CCCc2cc(/C=C/C(c3cc(Cl)c(Cl)c(Cl)c3)C(F)(F)F)ccc21 (stereo not drawn) [BC5],A (50-100)
22,O=C(NC1CCc2cc(/C=C/C(c3cc(Cl)c(Cl)c(Cl)c3)C(F)(F)F)ccc21)C1CC1 (stereo not drawn) [BC6],A (50-100)
23,O=C(NC1CCCc2cc(/C=C/C(c3cc(Cl)c(Cl)c(Cl)c3)C(F)(F)F)ccc21)C1CC1 (stereo not drawn) [BC7],A (50-100)
24,O=C(CC(F)(F)F)NC1CCc2cc(/C=C/C(c3cc(Cl)c(F)c(Cl)c3)C(F)(F)F)ccc21 (stereo not drawn) [BC8],A (50-100)

row,SMILES,BAW Rating
1,O=C(Cc1ccc(Cl)nc1)NC1CCc2cc(/C=C/C(c3cc(Cl)c(F)c(Cl)c3)C(F)(F)F)ccc21 (stereo not drawn) [BC9],A (50-100)
2,"Fc1c(Cl)cc(C(/C=C/c2ccc3c(c2)CCC3NCCC(F)(F)F)C(F)(F)F)cc1Cl (stereo not drawn) [BC10, (E)-5-(3-(3,5-Dichloro-4-fluorophenyl)-4,4,4-trifluorobut-1-en-1-yl)-N-(3,3,3-trifluoropropyl)-2,3-dihydro-1H-inden-1-amine]",A (50-100)
3,"O=C(CC(F)(F)F)NCC(=O)n1ccc2cc(/C=C/C(c3cc(Cl)c(F)c(Cl)c3)C(F)(F)F)ccc21 (stereo not drawn) [BC13, (E)-N-(2-(5-(3-(3,5-Dichloro-4-fluorophenyl)-4,4,4-trifluorobut-1-en-1-yl)-1H-indol-1-yl)-2-oxoethyl)-3,3,3-trifluoropropanamide]",A (50-100)
4,"O=C(Cn1ncc2cc(/C=C/C(c3cc(Cl)c(F)c(Cl)c3)C(F)(F)F)ccc2c1=O)NCC(F)(F)F (stereo not drawn) [BC14, (E)-2-(6-(3-(3,5-Dichloro-4-fluorophenyl)-4,4,4-trifluorobut-1-en-1-yl)-1-oxophthalazin-2(1H)-yl)-N-(2,2,2-trifluoroethyl)acetamide]",A (50-100)
5,O=C(NCc1ccc(/C=C/C(c2cc(Cl)cc(Cl)c2)C(F)(F)F)cc1)C1CC1 (stereo not drawn) [CC2],A (50-100)
6,O=C(CC(F)(F)F)NCc1ccc(/C=C/C(c2cc(Cl)cc(Cl)c2)C(F)(F)F)cc1 (stereo not drawn) [CC3],A (50-100)
7,CCC(=O)NCc1ccc(/C=C/C(c2cc(Cl)cc(Cl)c2)C(F)(F)F)cc1 (stereo not drawn) [CC4],A (50-100)
8,O=C(NCc1ccc(/C=C/C(c2cc(Cl)c(Cl)c(Cl)c2)C(F)(F)F)cc1)C1CC1 (stereo not drawn) [CC5],A (50-100)
9,O=C(CC(F)(F)F)NCc1ccc(/C=C/C(c2cc(Cl)c(Cl)c(Cl)c2)C(F)(F)F)cc1 (stereo not drawn) [CC6],A (50-100)
10,"CC(=O)NCc1ccc(/C=C/C(c2cc(Cl)cc(Cl)c2)C(F)(F)F)cc1Cl (stereo not drawn) [CC7, (E)-N-(2-Chloro-4-(3-(3,5-dichlorophenyl)-4,4,4-trifluorobut-1-en-1-yl)benzyl)acetamide]",A (50-100)
11,O=C(NCc1ccc(/C=C/C(c2cc(Cl)cc(Cl)c2)C(F)(F)F)cc1Cl)C1CC1 (stereo not drawn) [CC8],A (50-100)
12,O=C(CC(F)(F)F)NCc1ccc(/C=C/C(c2cc(Cl)cc(Cl)c2)C(F)(F)F)cc1Cl (stereo not drawn) [CC9],A (50-100)
13,O=C(NCc1ccc(/C=C/C(c2cc(Cl)c(Cl)c(Cl)c2)C(F)(F)F)cc1Cl)C1CC1 (stereo not drawn) [CC11],A (50-100)
14,O=C(Cc1ccc(Cl)nc1)NCc1ccc(/C=C/C(c2cc(Cl)c(Cl)c(Cl)c2)C(F)(F)F)cc1Cl (stereo not drawn) [CC14],A (50-100)
15,O=C(NCc1ccc(/C=C/C(c2cc(Cl)c(F)c(Cl)c2)C(F)(F)F)cc1Cl)C1CC1 (stereo not drawn) [CC15],A (50-100)
16,O=C(NCc1ccc(/C=C/C(c2ccc(Cl)c(Cl)c2)C(F)(F)F)cc1Cl)C1CC1 (stereo not drawn) [CC17],A (50-100)
17,O=C(CC(F)(F)F)NCc1ccc(/C=C/C(c2ccc(Cl)c(Cl)c2)C(F)(F)F)cc1Cl (stereo not drawn) [CC18],A (50-100)
18,CSCCC(=O)NCc1ccc(/C=C/C(c2cc(Cl)c(Cl)c(Cl)c2)C(F)(F)F)cc1Cl (stereo not drawn) [CC19],A (50-100)
19,FC(F)(F)C(/C=C/c1ccc(CNC(=S)C2CC2)c(Cl)c1)c1cc(Cl)c(Cl)c(Cl)c1 (stereo not drawn) [CC20],A (50-100)
20,O=C(NCc1ccc(/C=C/C(c2cc(Cl)cc(Cl)c2)C(F)(F)F)cc1C(F)(F)F)C1CC1 (stereo not drawn) [CC21],A (50-100)
21,O=C(NCc1ccc(/C=C/C(c2cc(Cl)c(Cl)c(Cl)c2)C(F)(F)F)cc1C(F)(F)F)C1CC1 (stereo not drawn) [CC22],A (50-100)
22,O=C(NCc1ccc(/C=C/C(c2cc(Cl)c(Cl)c(Cl)c2)C(F)(F)F)cc1C(F)(F)F)c1cccnc1 (stereo not drawn) [CC23],A (50-100)
23,O=C(CC(F)(F)F)NCc1ccc(/C=C/C(c2cc(Cl)c(Cl)c(Cl)c2)C(F)(F)F)cc1C(F)(F)F (stereo not drawn) [CC24],A (50-100)
24,O=C(CC(F)(F)F)NCc1ccc(/C=C/C(c2cc(Cl)c(Cl)c(Cl)c2)C(F)(F)F)cc1Br (stereo not drawn) [CC25],A (50-100)
